# Measured values from patent US20200079757A1, “COMPOUNDS FOR THE TREATMENT OF RESPIRATORY DISEASES” (THE UNIVERSITY OF MELBOURNE, priority 2017, published 2020).
# Assays:
# [1] = test system: PAI-1 gene expression in BEAS-2B cells; experiment: TNF-α and TGF-β induced PAI-1 gene expression in BEAS-2B cells (RT-qPCR); type: cell-based; conditions: for TNFa stimulated PAI-1 expression: 30 min pretreatment 1-10 μM, n=1, similar potency and maxima
# Procedure: The primary assay for the activity of the novel CK1δ/ε inhibitors is the modulation of gene expression in the airway epithelial cell line, the BEAS-2B cells. The assay is conducted under several conditions. Generally, TGF-β or TNF-α is used to elicit fibrogenic or inflammatory genes, respectively. The agents are added at a concentration of 10 μM, or at the indicated concentrations for a period of 30 min prior to the addition of TGF-β/TNF-α which are incubated for a further 20 hours before the addition, in some experiments of the glucocorticoid, dexamethasone (Dex, 30 nM) for the final 4 hours of the experiment, prior to harvest of cellular RNA to measure by RT-qPCR the levels of mRNA of marker genes for inflammation and fibrogenesis. The inhaled corticosteroid (ICS), budesonide is also used in some experiments. Furthermore, the supernatants are harvested at the end of the incubation periods in selected experiments to measure the levels of CSF-2 or IL-8 by ELISA as described in (Tran et al. (2005) British Journal of Pharmacology, 145, 123-131). Prior to experimentation, BEAS-2B and A549 cells were incubated in serum-free DMEM containing 0.25% bovine serum albumin (BSA) and insulin-transferrin-selenium—containing supplement (Monomed A; CSL, Parkville, Melbourne, Australia). Where indicated, cells were treated with one of the series of synthesised compounds (0.3-10 μM) prior to exposure to 100 pM TGF-β1 (R&D Systems, Minneapolis, Minn.) or 300 pM bFGF (Promega, Madison, Wis.). Total RNA was extracted from cultured cells using illustra RNAspin Mini RNA Isolation Kit (GE Healthcare). RNA extracts were reverse-transcribed into cDNA using High-Capacity RNA-to-cDNA Kit (Applied Biosystems). Real-time PCR was then performed using a QuantStudio 6 Flex Real-Time PCR System using iTaq Universal SYBR green supermix and the following thermal protocol: 50° C. (2 min), 95° C. (10 min), then 40 cycles of 95° C. (15 sec), 60° C. (1 min). The threshold cycle (CT) values determined for target genes were normalized against those obtained for 18S ribosomal RNA (18S rRNA), which was included as internal control. The generation of specific PCR products was confirmed by dissociation curve analysis. In the same experiment as described in FIG. 1, the expression of the fibrogen plasminogen activator inhibitor-1 was measured (see FIG. 2). The levels of this gene are increased by both TGF-β and by Dex and they synergise when added together. The CK1 inhibitors concentration-dependently reduce the effects of each of the stimuli and further reduce baseline expression. Their potency in this effect is similar, regardless of the condition being considered. In a separate experiment BEAS-2B cells were exposed to TNF-α with(out) 30 min pretreatment with either SS9-010 or PF670462 (1-10 μM). RNA was then extracted and analyzed by RT-qPCR. Each agent inhibited TNFa stimulated PAI-1 expression with similar potency and maxima (see FIG. 3). Data are presented as mean±SD for n=1 (three technical replicates).
# [2] = test system: Col 1A gene expression in BEAS-2B cells; experiment: TNFα and TGFβ induced Col 1A gene expression in BEAS-2B cells (RT-qPCR); type: cell-based
# Procedure: The primary assay for the activity of the novel CK1δ/ε inhibitors is the modulation of gene expression in the airway epithelial cell line, the BEAS-2B cells. The assay is conducted under several conditions. Generally, TGF-β or TNF-α is used to elicit fibrogenic or inflammatory genes, respectively. The agents are added at a concentration of 10 μM, or at the indicated concentrations for a period of 30 min prior to the addition of TGF-β/TNF-α which are incubated for a further 20 hours before the addition, in some experiments of the glucocorticoid, dexamethasone (Dex, 30 nM) for the final 4 hours of the experiment, prior to harvest of cellular RNA to measure by RT-qPCR the levels of mRNA of marker genes for inflammation and fibrogenesis. The inhaled corticosteroid (ICS), budesonide is also used in some experiments. Furthermore, the supernatants are harvested at the end of the incubation periods in selected experiments to measure the levels of CSF-2 or IL-8 by ELISA as described in (Tran et al. (2005) British Journal of Pharmacology, 145, 123-131).
# Prior to experimentation, BEAS-2B and A549 cells were incubated in serum-free DMEM containing 0.25% bovine serum albumin (BSA) and insulin-transferrin-selenium—containing supplement (Monomed A; CSL, Parkville, Melbourne, Australia). Where indicated, cells were treated with one of the series of synthesised compounds (0.3-10 μM) prior to exposure to 100 pM TGF-β1 (R&D Systems, Minneapolis, Minn.) or 300 pM bFGF (Promega, Madison, Wis.).
# Total RNA was extracted from cultured cells using illustra RNAspin Mini RNA Isolation Kit (GE Healthcare). RNA extracts were reverse-transcribed into cDNA using High-Capacity RNA-to-cDNA Kit (Applied Biosystems). Real-time PCR was then performed using a QuantStudio 6 Flex Real-Time PCR System using iTaq Universal SYBR green supermix and the following thermal protocol: 50° C. (2 min), 95° C. (10 min), then 40 cycles of 95° C. (15 sec), 60° C. (1 min). The threshold cycle (CT) values determined for target genes were normalized against those obtained for 18S ribosomal RNA (18S rRNA), which was included as internal control. The generation of specific PCR products was confirmed by dissociation curve analysis.
compound,measurement,setting,value
"CCCCCCCCN1CCC(n2cnc(-c3ccc(F)cc3)c2-c2ccnc(N)n2)CC1 [SS8-058, 4-(4-(4-Fluorophenyl)-1-[1-octylpiperidin-4-yl]-1H-imidazol-5-yl)pyrimidin-2-amine]","PAI-1 mRNA level, TGF-β",[1]; agent 10 μM,9.14 ± 1.23 fold control
same,"PAI-1 mRNA level, TNF-α (n = 2)",[1]; agent 10 μM,0.91 fold control
same,"PAI-1 mRNA level, vehicle (no stimulus)",[1]; agent 10 μM,0.37 ± 0.04 fold control
same,"Col1A mRNA level, TGF-β",[2]; agent 10 μM,9.68 ± 1.25 fold control
same,"Col1A mRNA level, TNF-α (n = 2)",[2]; agent 10 μM,1.11 fold control
same,"Col1A mRNA level, vehicle (no stimulus)",[2]; agent 10 μM,0.91 ± 0.19 fold control
"CNc1nccc(-c2c(-c3ccc(F)cc3)ncn2C2CCCCC2)n1 [SS9-010, 4-(1-Cyclohexyl-4-(4-fluorophenyl)-1H-imidazol-5-yl)-N-methylpyrimidin-2-amine]",TNFa stimulated PAI-1 expression,[1],inhibited
same,"PAI-1 mRNA level, TGF-β",[1]; agent 10 μM,0.64 ± 0.05 fold control
same,"PAI-1 mRNA level, TNF-α (n = 2)",[1]; agent 10 μM,0.43 fold control
same,"PAI-1 mRNA level, vehicle (no stimulus)",[1]; agent 10 μM,0.18 ± 0.00 fold control
same,"Col1A mRNA level, TGF-β",[2]; agent 10 μM,1.09 ± 0.10 fold control
same,"Col1A mRNA level, TNF-α (n = 2)",[2]; agent 10 μM,0.37 fold control
same,"Col1A mRNA level, vehicle (no stimulus)",[2]; agent 10 μM,0.30 ± 0.02 fold control
"Cl.Nc1nccc(-c2c(-c3ccc(F)cc3)ncn2C2CCCCC2)n1 [PF670462, 4-(1-Cyclohexyl-4-(4-fluorophenyl)-1H-imidazol-5-yl)pyrimidin-2-amine hydrochloride, reference compound]",TNFa stimulated PAI-1 expression,[1],inhibited
same,"PAI-1 mRNA level, TGF-β",[1]; agent 3 μM,1.30 ± 0.18 fold control
same,"PAI-1 mRNA level, TNF-α (n = 2)",[1]; agent 3 μM,0.74 fold control
same,"PAI-1 mRNA level, TGF-β",[1]; agent 10 μM,1.64 ± 0.27 fold control
same,"PAI-1 mRNA level, TNF-α (n = 2)",[1]; agent 10 μM,0.47 fold control
same,"PAI-1 mRNA level, vehicle (no stimulus)",[1]; agent 10 μM,0.26 ± 0.04 fold control
same,"Col1A mRNA level, TGF-β",[2]; agent 3 μM,1.91 ± 0.32 fold control
same,"Col1A mRNA level, TNF-α (n = 2)",[2]; agent 3 μM,0.52 fold control
same,"Col1A mRNA level, vehicle (no stimulus)",[2]; agent 3 μM,0.47 ± .04 fold control
same,"Col1A mRNA level, TGF-β",[2]; agent 10 μM,1.53 ± 0.33 fold control
same,"Col1A mRNA level, TNF-α (n = 2)",[2]; agent 10 μM,0.65 fold control
same,"Col1A mRNA level, vehicle (no stimulus)",[2]; agent 10 μM,0.65 ± 0.02 fold control
